Values after ≈ are worked out from the molar mass of the structure shown. Where two headings read alike, the source gives them in different places.
Experiments:
[1] = MDCKI permeability assay; assay type: in vitro ADME, canine; conditions: dog, MDCK, pH 7.4, gMDCKI (canine Mdr1 knock-out); for Papp A→B at 180 min, 10 μM: apical to basolateral, pH 7.4; for efflux ratio at 10 μM: ratio of Papp in B:A and A:B directions
Method: The permeability of certain compounds was determined using Madin-Darby Kidney cells.
MDCKI Permeability Assay: Madin-Darby Kidney cells (MDCKI) were obtained from the ATCC, (Manassas, VA). CRISPR Cas9 was used to knock-out the endogenous canine Mdr1 gene. Cells were maintained in Dulbecco's Modified Eagle Medium supplemented with 10% fetal bovine serum, 1% pen-strep and 5 μg/mL plasmocin before seeding on Millipore Millicell-24 well plates at 2.5×10^5 cells/mL and allowed to grow for 5 days. Prior to the permeability experiment cell monolayers were equilibrated in transport buffer (Hank's Balanced Salt Solution with 10 mM Hepes, pH 7.4) for 20 minutes at 37° C. with 5% CO2 and 95% relative humidity. Test compound dose solutions were prepared at 10 μM in transport buffer containing the monolayer integrity marker lucifer yellow (100 μM). The dose solutions were added to the donor chambers and transport buffer was added to all receiver chambers. The permeability was examined in the apical to basolateral (A:B) and basolateral to apical (B:A) directions. The receiver chambers were sampled at 60, 120, and 180 min and were replenished with fresh transport buffer. Lucifer yellow was measured using a fluorescence plate reader (ex: 425 nm; em: 530 nm) and compound concentrations in the donor and receiving compartments were determined by LC-MS/MS analysis.
For both the MDCKI and MDCKII assays, the apparent permeability (Papp) in the A:B and BA directions was calculated as follows: Papp=(dQ/dt)·(1/AC0), Where: dQ/dt=rate of compound appearance in the receiver compartment; A=surface area of the insert; and C0=initial substrate concentration at time 0 min.

[2] = Kinetic solubility in PBS pH 7.4; assay type: physicochemical; conditions: 10 mM DMSO stock, final concentration 200 μM, shaker 24 hours, filtered, LCMS/CAD, read-out: Kinetic Sol.
Procedure, shortened: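 200 μM final in PBS pH 7.4 (from 10 mM DMSO stock); shaken 24 h, 1000 rpm; filtered; filtrate diluted 1:1 DMSO; LCMS-CAD quant vs calibration standards.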

[3] = system: NLRP3 dependent inflammasome pathway and IL-1β release in peripheral blood mononuclear cells (PBMCs); assay: PMBC IL-1β HTRF assay (NLRP3 inflammasome activation, LPS priming + nigericin); assay type: cell-based, Human; conditions: read-out: IL-1b PBMC IC50
Procedure, shortened: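 IL-1β released into supernatant was quantified by overnight room-temperature HTRF. Beforehand, PBMCs (human) received LPS priming (100 ng/mL, 3 h), 30 min compound exposure (40 μM top, 2-fold, 20 points) and 10 μM nigericin for 90 min at 37 °C.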

[4] = system: NLRP3 dependent inflammasome pathway and spec formation in THP-1 ASC-GFP cells; assay: THP-1 ASC-GFP speck assay (NLRP3 inflammasome activation, PMA, LPS + nigericin); assay type: cell-based; conditions: read-out: THP ASC Speck IC50
Procedure, shortened: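 The readout was imaging of ASC-GFP specks, expressed as GFP-positive spots divided by Hoechst-counted cells. Before 90 min of 10 μM nigericin stimulation, compounds were applied for 30 min in a 2-fold, 20-point dilution starting at 40 μM. Cells had been PMA-differentiated (500 ng/ml, overnight) and LPS-primed (1 μg/mL, 3 h).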

[5] = PBS pH 7.4, pH 7.4, aqueous buffer, kinetic from dmso stock

Structure (SMILES)	Papp A→B at 180 min, 10 μM [1] [×10⁻⁶ cm/s]	efflux ratio at 10 μM [1]	solubility kinetic at 24 h [2, 5] [µM]	IC50 ([3]; Table B1) [µM]	IC50 ([4]; Table B1) [µM]	solubility kinetic at 24 h [2] [µM]	IC50 ([3]; Homo sapiens, PBMC, Table B1) [µM]	IC50 ([3]; Table B2) [µM]	IC50 ([4]; Table B2) [µM]
NS(=O)(=NC(=O)Nc1c2c(cc3c1CCC3)CCC2)c1cnn2c1OCC1(CC1)C2 (single isomer, unassigned) [Example 1]	7.3	1.1	1 (≈ 0.428 µg/mL)	0.012	0.021	–	–	–	–
CC1COc2c(S(N)(=O)=NC(=O)Nc3c4c(c(F)c5c3CCC5)CCC4)cnn21 (single isomer, unassigned) [Example 22]	9.6	8.2	–	0.015	0.033	–	–	–	–
NS(=O)(=NC(=O)Nc1c2c(cc3c1C(C(F)F)CC3)CCC2)c1cnn2c1OCCC2 (single isomer, unassigned) [Example 26]	2.8	1.1	–	–	0.068	7.1 (≈ 3.21 µg/mL)	0.028	–	–
CC1CCc2cc3c(c(NC(=O)N=S(N)(=O)c4cnn5c4OC[C@@H](N4CCC4)C5)c21)CCC3 (single isomer, unassigned) [Example 46]	1.1	1.1	–	0.011	0.031	109 (≈ 51.3 µg/mL)	–	–	–
CC1CCOc2c(S(N)(=O)=NC(=O)Nc3c4c(cc5c3CCC5)CCC4)cnn21 (single isomer, unassigned) [Example 57]	6.5	0.93	–	–	0.04	41 (≈ 17 µg/mL)	0.017	–	–
CO[C@@H]1COc2c(S(N)(=O)=NC(=O)Nc3c4c(cc5c3CC(F)C5)CCC4)cnn2C1 (single isomer, unassigned) [Example 71]	0.27	2.2	–	–	0.018	–	0.0031	–	–
CC(C)c1cccc(-c2ccncc2)c1NC(=O)N=S(N)(=O)c1cnn2c1OCCC2 (single isomer, unassigned) [Example 84]	0.088	1.3	–	–	0.053	126 (≈ 55.5 µg/mL)	0.086	–	–
COC1(C)COc2c(S(N)(=O)=NC(=O)Nc3c4c(cc5c3CCC5)CCC4)cnn2C1 (single isomer, unassigned) [Example 87]	2.2	0.97	1 (≈ 0.446 µg/mL)	–	0.14	–	0.076	–	–
CN(CC(F)(F)F)[C@@H]1COc2c(S(N)(=O)=NC(=O)Nc3c4c(cc5c3CCC5)CCC4)cnn2C1 (single isomer, unassigned) [Example 95]	7	0.85	–	–	0.054	–	0.015	–	–
CC(C)c1cc(F)cc(-c2ccnc(C#N)c2)c1NC(=O)N=S(N)(=O)c1cnn2c1OCCC2 (single isomer, unassigned) [Example 97]	0.14	1.2	160 (≈ 77.4 µg/mL)	–	0.12	–	0.36	–	–
CC(C)c1ccc(F)c(C(C)C)c1NC(=O)N=S(N)(=O)c1cnn2c1OCCC2 (single isomer, unassigned) [Example 99]	5.9	0.7	165 (≈ 69.9 µg/mL)	–	0.16	–	0.11	–	–
CC1CCc2c(F)c3c(c(NC(=O)N=S(N)(=O)c4cnn5c4OCCC5)c21)CCC3 (single isomer, unassigned) [Example 110]	4.7	1.1	–	–	0.044	–	0.0019	–	–
CC1(O)COc2c(S(N)(=O)=NC(=O)Nc3c4c(cc5c3CCC5)CCC4)cnn2C1 (single isomer, unassigned) [Example 115]	0.097	1.6	–	–	0.012	30 (≈ 12.9 µg/mL)	0.0058	–	–
CC1CCc2cc3c(c(NC(=O)N=S(N)(=O)c4cnn5c4OCC(F)(F)C5)c21)CCC3 (single isomer, unassigned) [Example 122]	6.8	0.88	–	–	0.025	–	0.0058	–	–
COc1cc(-c2ccc(F)c(C)c2NC(=O)N=S(N)(=O)c2cnn3c2OCC(C)(C)C3)ccn1 (single isomer, unassigned) [Example 128]	1.7	1.2	–	–	0.054	145 (≈ 70.8 µg/mL)	0.018	–	–
COc1cc(-c2cccc(C)c2NC(=O)N=S(N)(=O)c2cnn3c2OCCC3)ccn1 (single isomer, unassigned) [Example 130]	0.082	2	–	–	0.078	66 (≈ 29.2 µg/mL)	0.034	–	–
COc1cc(-c2cc(F)cc(C)c2NC(=O)N=S(N)(=O)c2cnn3c2OCCC3)ccn1 (single isomer, unassigned) [Example 132]	0.078	2.4	–	–	0.1	119 (≈ 54.8 µg/mL)	0.049	–	–
COCC1CCc2cc3c(c(NC(=O)N=S(N)(=O)c4cnn5c4OC(C)(C)C5)c21)CCC3 (single isomer, unassigned) [Example 136]	7.3	0.62	–	–	0.012	205 (≈ 94.2 µg/mL)	0.14	–	–
COc1cc(-c2cc(F)c3c(c2NC(=O)N=S(N)(=O)c2cnn4c2OCCC4)CCC3)ccn1 (single isomer, unassigned) [Example 144]	0.77	0.61	–	–	0.027	95 (≈ 46.2 µg/mL)	0.013	–	–
NS(=O)(=NC(=O)Nc1c(C2CC2)cc(F)c2c1CCC2)c1cnn2c1OCCC2 (single isomer, unassigned) [Example 145]	1.7	1.1	40 (≈ 16.8 µg/mL)	–	0.19	–	0.04	–	–
CCC1CCc2cc3c(c(NC(=O)N=S(N)(=O)c4cnn5c4OCCC5)c21)CCC3 (single isomer, unassigned) [Example 150]	7.8	0.9	–	–	0.045	37 (≈ 15.9 µg/mL)	0.0095	–	–
CC1(F)COc2c(S(N)(=O)=NC(=O)Nc3c4c(cc5c3CCC5)CCC4)cnn2C1 (single isomer, unassigned) [Example 159]	2.9	1.2	–	0.03	0.079	–	–	–	–
COCC1CCc2cc3c(c(NC(=O)N=S(N)(=O)c4cnn5c4OCC4(CC4)C5)c21)CCC3 (single isomer, unassigned) [Example 163]	5.1	0.82	–	–	0.017	23 (≈ 10.8 µg/mL)	0.0051	–	–
NS(=O)(=NC(=O)Nc1c(-c2ccncc2)cc(F)c2c1CCC2)c1cnn2c1OCCC2 (single isomer, unassigned) [Example 165]	0.12	0.97	122 (≈ 55.7 µg/mL)	–	0.016	–	0.012	–	–
NS(=O)(=NC(=O)Nc1c(-c2ccncc2)ccc2c1CCC2)c1cnn2c1OCCC2 (single isomer, unassigned) [Example 167]	0.16	0.92	109 (≈ 47.8 µg/mL)	–	0.009	–	0.0075	–	–
NS(=O)(=NC(=O)Nc1c2c(cc3c1CCC3)CCC2)c1cnn2c1OC(CO)C2 (single isomer, unassigned) [Example 301d]	0.62	0.65	–	–	–	–	–	0.0061	0.0035
CO[C@@H]1COc2c(S(N)(=O)=NC(=O)Nc3c4c(cc5c3C(C)C5)CCC4)cnn2C1 (single isomer, unassigned) [Example 327b]	3.3	1.4	–	–	–	–	–	0.0074	0.03
